# Active and inactive are the calls of the source. For most assays here, no stated cut-off is given here; in the data, actives have a measured EC50 and inactives only a lower limit.
# Legend:
# [1] = biological target: T1, Ubiquitin-conjugating enzyme E2 N (Homo sapiens, UniProt P61088); type: functional;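 further: Dose-response confirmation in a TR-FRET assay detecting UBC13-driven polyubiquitin chain formation, inhibition measured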
# T1 sequence (P61088 whole entry): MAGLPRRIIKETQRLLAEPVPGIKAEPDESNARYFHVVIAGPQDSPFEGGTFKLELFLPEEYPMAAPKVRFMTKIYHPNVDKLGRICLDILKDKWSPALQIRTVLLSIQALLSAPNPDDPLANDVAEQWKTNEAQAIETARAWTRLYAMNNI
# [2] = Luminescence Cell-Based Dose Response HTS to Identify Activators of Luciferase Translation or Activity in H4 […] Cells. [Related pubchem assays: 1829 (Project Summary), 1814 (Primary HTS)]; type: functional
# H4 = assay: Luminescence Cell-Based Dose Response HTS to Identify Activators of 5'UTR Stem-Loop Driven Prion Protein mRNA Translation in H4 Neuroglioblastoma Cells. [Related pubchem assays: 1829 (Project Summary), 1814 (Primary HTS)]; type: functional; details: Homo sapiens
# [3] = HEp-2 cell cytotoxicity, dose response, cytotoxicity control for RSV inhibitor project, HTS (AID 2410); type: functional; details: human respiratory syncytial virus
# [4] = biological target: Luciferin 4-monooxygenase (Photinus pyralis, UniProt P08659); assay: firefly luciferase enzyme inhibitors, dose response, biochemical, luminescence (AID 1891)
# [5] = Luminescence Cell-Based Dose Confirmation HTS to Identify Inhibitors of Platelet Dense Granule Release. [Related pubchem assays: 1663 (Primary HTS), 1678 (Summary of Project)]; type: functional
# INS1 = assay: beta cell apoptosis inhibitors, cytokine rescue, dose response, luminescence, retest (AID 449756); type: functional, cell-based; details: Rattus norvegicus;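 further: cell death triggered by IL-1 beta plus TNF-alpha plus IFN-gamma mixture; protective hits raise ATP signal compared with cytokine alone wells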
# [6] = biological target: T2, RNA-binding protein pos-1 (Caenorhabditis elegans, UniProt G5EF15); assay: inhibitors of POS-1/mex-3 RNA binding, dose response, biochemical, fluorescence polarization (AID 1964);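 further: purified POS-1 fused to maltose binding protein made in E. coli; potency of compounds blocking POS-1 binding to fluorescent RNA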
# T2 sequence (G5EF15 whole entry): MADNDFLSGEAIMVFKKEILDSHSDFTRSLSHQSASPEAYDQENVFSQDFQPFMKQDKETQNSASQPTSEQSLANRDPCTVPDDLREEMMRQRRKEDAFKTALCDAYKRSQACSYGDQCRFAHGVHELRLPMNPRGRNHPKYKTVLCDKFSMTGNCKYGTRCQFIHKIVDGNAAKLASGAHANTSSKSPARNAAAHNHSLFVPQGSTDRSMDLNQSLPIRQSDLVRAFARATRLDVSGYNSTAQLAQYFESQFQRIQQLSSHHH
# [7] = biological target: T3, Zinc finger protein mex-5 (Caenorhabditis elegans, UniProt Q9XUB2); assay: MEX-5/TCR-2 RNA interaction inhibitors, dose response, biochemical, C. elegans, fluorescence polarization (AID 1960)
# T3 sequence (Q9XUB2 whole entry): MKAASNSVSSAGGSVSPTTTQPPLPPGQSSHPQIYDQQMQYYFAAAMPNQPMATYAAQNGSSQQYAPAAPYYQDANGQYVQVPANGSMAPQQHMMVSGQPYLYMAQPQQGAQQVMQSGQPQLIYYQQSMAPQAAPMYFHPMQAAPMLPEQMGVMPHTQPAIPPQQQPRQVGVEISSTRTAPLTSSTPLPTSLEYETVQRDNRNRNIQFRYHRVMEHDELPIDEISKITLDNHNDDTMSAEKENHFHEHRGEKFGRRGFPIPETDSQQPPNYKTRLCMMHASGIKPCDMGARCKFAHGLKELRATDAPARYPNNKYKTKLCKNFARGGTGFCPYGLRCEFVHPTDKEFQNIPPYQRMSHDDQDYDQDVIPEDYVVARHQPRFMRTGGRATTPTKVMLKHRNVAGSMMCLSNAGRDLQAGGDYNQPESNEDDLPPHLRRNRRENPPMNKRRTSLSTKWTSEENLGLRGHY
# [8] = Luminescence Cell-Based Dose Retest to Confirm Inhibitors of Cancer Stem Cells. [Related pubchem assays (depositor defined):AID2717, AID2721]; type: functional; details: Homo sapiens
# [9] = test system: Streptococcus sp. 'group A'; assay: growth inhibition of control SK(-) GAS strain, dose response, counter-screen for streptokinase expression inhibitor project, luminescence, kanamycin, BacTiterGlo, confirmation (AID 1900); type: functional, organism-based
# Streptokinase A = biological target: T4, Streptokinase A (Streptococcus pyogenes serotype M1, UniProt P10520); assay: S. pyogenes streptokinase expression inhibitors, potency, dose response, plasminogen activation absorbance, OD405 (AID 1914); type: functional, Streptococcus pyogenes M1 GAS;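 further: secreted streptokinase activity via plasminogen activation per viability signal from cell pellet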
# T4 sequence (P10520 whole entry): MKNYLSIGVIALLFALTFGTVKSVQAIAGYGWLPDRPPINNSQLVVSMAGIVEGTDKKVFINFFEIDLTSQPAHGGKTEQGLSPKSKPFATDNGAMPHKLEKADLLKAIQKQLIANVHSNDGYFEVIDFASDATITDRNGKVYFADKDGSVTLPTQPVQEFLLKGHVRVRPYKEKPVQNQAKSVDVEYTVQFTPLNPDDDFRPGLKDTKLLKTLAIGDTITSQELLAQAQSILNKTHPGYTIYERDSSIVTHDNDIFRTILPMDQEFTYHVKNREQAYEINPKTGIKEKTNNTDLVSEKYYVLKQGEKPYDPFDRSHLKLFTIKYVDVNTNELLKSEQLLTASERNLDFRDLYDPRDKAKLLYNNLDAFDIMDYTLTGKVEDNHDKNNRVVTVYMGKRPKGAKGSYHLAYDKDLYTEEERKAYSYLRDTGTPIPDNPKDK
# Streptococcus = assay: Group A Streptococcus viability loss, dose response, counter-screen for streptokinase expression inhibitor project, luminescence, BacTiterGlo (AID 1915); type: functional, organism-based; details: read-out: EC50;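 further: potency for reduction of bacterial viability or growth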
# Protein RecA = biological target: T5, Protein RecA (Mycobacterium tuberculosis, UniProt P9WHJ3); assay: Fluorescence Cell-Free Homogeneous Dose Retest to Identify Inhibitors of RecA-Intein Splicing Activity. [Related pubchem assays (depositor defined):AID2097, AID2223, AID489010, AID492950]; type: functional
# T5 sequence (P9WHJ3 whole entry): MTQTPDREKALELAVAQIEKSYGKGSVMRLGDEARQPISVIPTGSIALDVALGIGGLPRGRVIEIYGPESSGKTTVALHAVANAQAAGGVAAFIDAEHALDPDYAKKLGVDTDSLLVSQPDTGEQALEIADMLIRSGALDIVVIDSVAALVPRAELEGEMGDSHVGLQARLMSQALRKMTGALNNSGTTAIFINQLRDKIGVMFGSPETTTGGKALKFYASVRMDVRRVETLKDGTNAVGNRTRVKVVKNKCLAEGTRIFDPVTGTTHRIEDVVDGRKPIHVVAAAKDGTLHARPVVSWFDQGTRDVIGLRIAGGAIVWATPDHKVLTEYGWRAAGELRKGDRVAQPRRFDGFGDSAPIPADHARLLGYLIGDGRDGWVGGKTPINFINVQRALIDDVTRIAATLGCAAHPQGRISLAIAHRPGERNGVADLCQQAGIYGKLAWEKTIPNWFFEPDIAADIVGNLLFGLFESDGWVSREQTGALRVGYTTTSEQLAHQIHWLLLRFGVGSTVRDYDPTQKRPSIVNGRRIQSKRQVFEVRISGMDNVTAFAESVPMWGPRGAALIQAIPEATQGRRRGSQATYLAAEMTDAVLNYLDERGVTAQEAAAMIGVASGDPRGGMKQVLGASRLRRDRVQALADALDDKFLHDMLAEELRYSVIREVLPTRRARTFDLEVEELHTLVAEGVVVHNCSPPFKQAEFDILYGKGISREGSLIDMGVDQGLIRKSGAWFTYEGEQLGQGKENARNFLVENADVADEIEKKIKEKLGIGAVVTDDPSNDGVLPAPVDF
# Sequence of Luciferin 4-monooxygenase (P08659 whole entry): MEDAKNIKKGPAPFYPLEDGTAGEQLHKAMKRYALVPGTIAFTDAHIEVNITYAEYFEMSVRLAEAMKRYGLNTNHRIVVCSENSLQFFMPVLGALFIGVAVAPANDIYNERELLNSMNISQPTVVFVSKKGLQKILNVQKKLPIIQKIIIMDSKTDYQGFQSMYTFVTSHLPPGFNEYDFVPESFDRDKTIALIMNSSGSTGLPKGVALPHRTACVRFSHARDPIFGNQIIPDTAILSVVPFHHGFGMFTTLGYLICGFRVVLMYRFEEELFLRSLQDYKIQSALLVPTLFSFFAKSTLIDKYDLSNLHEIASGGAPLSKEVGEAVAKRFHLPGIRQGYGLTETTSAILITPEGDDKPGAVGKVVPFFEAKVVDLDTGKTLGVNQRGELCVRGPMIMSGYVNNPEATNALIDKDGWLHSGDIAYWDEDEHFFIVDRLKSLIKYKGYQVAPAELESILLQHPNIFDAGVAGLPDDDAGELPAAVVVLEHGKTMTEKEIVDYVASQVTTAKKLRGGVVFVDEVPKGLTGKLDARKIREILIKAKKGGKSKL
smiles,measurement,setting,value
NC1=NC[C@@H](Cc2ccc(O)cc2)N1CCc1cc(C(F)(F)F)cc(C(F)(F)F)c1,IC50,[1],> 20 µM (inactive)
Nc1cc(-c2nc3ncccc3o2)ccc1Cl,EC50,[2],4.25 µM (active)
same,EC50,H4,> 120 µM (not active)
Nc1c2c(nc3ccc(Br)cc13)N(Cc1ccccc1)CC2,CC50,[3],9.17 µM (active)
Cc1nn(C)c(Cl)c1CN1CCN(C2CCCCC2)C(CCO)C1 (stereo not drawn),EC50,[4],> 112 µM (not active)
same,EC50,[5],> 112 µM (not active)
COc1ccc(-c2cc(-c3cccs3)nc(OC)c2C#N)cc1OC,IC50,[1],> 20 µM (inactive)
O=C(CCc1nc(O)c2ccccc2n1)NCCN1C(=O)S/C(=C\c2ccccc2Cl)C1=O,CC50,[3],23.9 µM (active)
COc1ccc(C(CCN2CCCC2)c2c(OC)cc(OC)c3c(-c4ccccc4)cc(=O)oc23)cc1 (stereo not drawn),IC50,[1],> 20 µM (inactive)
CC(=O)c1ccc(NC(S)=NCc2cccnc2)cc1,AC50,INS1,5.94 µM (active)
Cc1ccc(C2CC(c3cccc(Br)c3)n3nc(N)nc3N2)cc1 (stereo not drawn),AC50,INS1,34.1 µM (active)
CC(=O)C1=C(C)NC(SCC(=O)c2ccc(Cl)cc2)=C(C#N)C1CC(C)C (stereo not drawn),CC50,[3],23.4 µM (active)
COC(=O)C(C#N)c1nc2ccccc2nc1N1CCN(Cc2ccc3c(c2)OCO3)CC1 (stereo not drawn),EC50,[4],> 112 µM (not active)
same,EC50,[5],> 112 µM (not active)
CC1CCN(C(=O)C2CCN(CC(C)c3ccccc3)CC2)CC1 (stereo not drawn),EC50,[4],> 112 µM (not active)
same,EC50,[5],> 112 µM (not active)
CCOC(=O)/C(C#N)=C/c1cc2ccccc2nc1N1CCCCC1,EC50,[6],> 300 µM (not active)
same,EC50,[7],104 µM (active)
COc1ccccc1-c1oc2ccccc2c1C#CC1(N)CCCCC1,AC50,[8],5.52 µM (active)
same,IC50,[1],> 20 µM (inactive)
CCCCOC(=O)c1ccc(NC(=O)CN2C(=O)NC3(CCCCCC3)C2=O)cc1,CC50,[3],31.9 µM (active)
C=CCn1c(N)c(C(=O)Nc2cccc(C)c2)c2nc3ccccc3nc21,CC50,[3],11.4 µM (active)
same,EC50,[9],2.97 µM (active)
same,EC50,Streptokinase A,> 150 µM (not active)
same,EC50,Streptococcus,8.54 µM (active)
same,EC50,Protein RecA,13.3 µM (active)
CN1C(=O)C(=Cc2ccccc2OS(=O)(=O)c2ccccc2)C(=O)N(C)C1=O,EC50,[6],> 300 µM (not active)
same,EC50,[7],> 300 µM (not active)
